In US11447465B2, “Pharmaceutical compounds for treatment of medical disorders” (Achillion Pharmaceuticals, Inc., priority 2017, dated 2022):
Like-named read-outs stand apart in the source and are kept apart here.

Target: Human Factor D (Homo sapiens (Human), UniProt P00746)
Assay: Human Factor D Assay
Assay type: biochemical
Outline: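 Serum-purified human factor D (80 nM final) preincubated with compound 5 min at room temperature in 50 mM Tris, 1 M NaCl, pH 7.5. Z-L-Lys-SBzl and DTNB added at 100 μM each; A405 followed every 30 s for 30 min. IC50 by nonlinear regression of rates.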

[1] = Table 5, Human Factor D 80 nM, substrate Z-L-Lys-SBzl, read-out: IC50 (Stars)

Chain of Human Factor D (P00746 26-253): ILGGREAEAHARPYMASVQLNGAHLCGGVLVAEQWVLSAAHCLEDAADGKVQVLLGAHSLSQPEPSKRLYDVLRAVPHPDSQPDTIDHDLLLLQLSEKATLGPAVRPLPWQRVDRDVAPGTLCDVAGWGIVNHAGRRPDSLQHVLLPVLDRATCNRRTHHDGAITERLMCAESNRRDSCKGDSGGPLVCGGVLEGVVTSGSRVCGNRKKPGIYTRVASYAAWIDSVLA

Row | IC50 (Table 7, read-out: IC5 (Stars)) | Structure (SMILES) | IC50 [1]
1 | 1 to 10 µM | Cc1ncc(-c2cc(CC(=O)N3[C@H](C(=O)Nc4nc(Br)ccc4C)C[C@@]4(C)C[C@@H]34)cc(C(N)=O)c2)cn1 [Compound T-169, (1R,3S,5R)-N-(6-bromo-3-methylpyridin-2-yl)-2-(2-(3-carbamoyl-5-(2-methylpyrimidin-5-yl)phenyl)acetyl)-5-methyl-2-azabicyclo[3.1.0]hexane-3-carboxamide] | –
2 | < 1 µM | Cc1cc2c(s1)c(C(N)=O)nn2CC(=O)N1[C@H](C(=O)Nc2nc(Br)ccc2C)C[C@@]2(CNC(=O)COCCOCCNC(=O)COCCOCCNC(=O)CC[C@H](NC(=O)CCCCCCCCCCCCCCCCC(=O)O)C(=O)O)C[C@@H]12 [Compound T-100, (S)-1-((1R,3S,5R)-3-((6-bromo-3-methylpyridin-2-yl)carbamoyl)-2-(2-(3-carbamoyl-5-methyl-1H-thieno[3,2-c]pyrazol-1-yl)acetyl)-2-azabicyclo[3.1.0]hexan-5-yl)-24-carboxy-3,12,21,26-tetraoxo-5,8,14,17-tetraoxa-2,11,20,25-tetraazatritetracontan-43-oic acid] | –
3 | – | CC(=O)c1nn(CC(=O)N2[C@H]3C[C@@]3(C)C[C@H]2C(=O)Nc2nc(Br)ccc2C)c2c(S(C)(=N)=O)cccc12 (stereo partly drawn) [Compound T-36, (1S,3S,5S)-2-(2-(3-acetyl-7-(S-methylsulfonimidoyl)-1H-indazol-1-yl)acetyl)-N-(6-bromo-3-methylpyridin-2-yl)-5-methyl-2-azabicyclo[3.1.0]hexane-3-carboxamide] | > 10 µM
4 | – | CC(=O)c1nn(CC(=O)N2[C@H](C(=O)Nc3nc(Br)ccc3C)C[C@@]3(C)C[C@@H]23)c2cc(S(C)(=N)=O)ccc12 (stereo partly drawn) [Compound T-33, (1R,3S,5R)-2-(2-(3-acetyl-6-(S-methylsulfonimidoyl)-1H-indazol-1-yl)acetyl)-N-(6-bromo-3-methylpyridin-2-yl)-5-methyl-2-azabicyclo[3.1.0]hexane-3-carboxamide] | < 1 µM

Row | Structure (SMILES) | IC50 (Table 7, read-out: IC5 (Stars)) | IC50 [1]
5 | CC(=O)c1nn(CC(=O)N2[C@H](C(=O)Nc3nc(Br)ccc3C)C[C@@]3(CNC(=O)COCCOCCNC(=O)COCCOCCNC(=O)CC[C@H](NC(=O)CCCCCCCCCCCCCCCCC(=O)O)C(=O)O)C[C@@H]23)c2ccccc12 [Compound T-85, (S)-1-((1R,3S,5R)-2-(2-(3-acetyl-1H-indazol-1-yl)acetyl)-3-((6-bromo-3-methylpyridin-2-yl)carbamoyl)-2-azabicyclo[3.1.0]hexan-5-yl)-24-carboxy-3,12,21,26-tetraoxo-5,8,14,17-tetraoxa-2,11,20,25-tetraazatritetracontan-43-oic acid] | < 1 µM | –
